Earlier results in patent US20100008866A1, “CIS-CYCLOHEXYL SUBSTITUTED PYRIMIDINONE DERIVATIVES” (Neurogen Corporation, priority 2006, published 2010).

Biological target: VR (Homo sapiens, UniProt Q8NER1)
Settings: typically; no more than moderate affinity; read-out: Ki value (binds to VR)

Chain of VR (Q8NER1 whole entry): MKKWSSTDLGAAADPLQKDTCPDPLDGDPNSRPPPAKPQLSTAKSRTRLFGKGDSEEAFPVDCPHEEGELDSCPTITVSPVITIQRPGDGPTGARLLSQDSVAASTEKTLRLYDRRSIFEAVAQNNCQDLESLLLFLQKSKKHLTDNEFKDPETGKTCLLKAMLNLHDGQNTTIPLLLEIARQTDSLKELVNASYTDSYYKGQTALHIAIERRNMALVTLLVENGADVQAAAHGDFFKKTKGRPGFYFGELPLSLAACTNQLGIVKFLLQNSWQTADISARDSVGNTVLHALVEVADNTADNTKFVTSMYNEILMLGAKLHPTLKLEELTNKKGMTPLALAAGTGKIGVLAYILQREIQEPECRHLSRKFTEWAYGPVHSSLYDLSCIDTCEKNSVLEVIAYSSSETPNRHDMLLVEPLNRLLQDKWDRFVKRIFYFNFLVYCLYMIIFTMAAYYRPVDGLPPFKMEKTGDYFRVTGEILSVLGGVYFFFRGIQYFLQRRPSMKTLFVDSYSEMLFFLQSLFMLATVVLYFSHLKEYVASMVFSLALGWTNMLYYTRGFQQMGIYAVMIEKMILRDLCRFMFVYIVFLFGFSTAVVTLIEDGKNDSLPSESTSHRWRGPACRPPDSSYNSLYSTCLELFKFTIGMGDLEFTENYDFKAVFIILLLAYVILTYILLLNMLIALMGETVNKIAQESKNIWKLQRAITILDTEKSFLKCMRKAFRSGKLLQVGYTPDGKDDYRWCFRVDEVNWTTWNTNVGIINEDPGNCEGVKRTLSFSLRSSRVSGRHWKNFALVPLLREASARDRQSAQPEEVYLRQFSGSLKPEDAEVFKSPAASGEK

Structure (SMILES): Cl.Cl.Cl.Cl.Cl.Cl.N.N.N.N.N.N.N.N.N.N.N.N.N.N.[O-2].[O-2].[Ru+3].[Ru+3].[Ru+4] [ruthenium red]
- Ki: ≥ 140 µM
